According to patent US10507193B2, “Ultra low dose doxepin and methods of using the same to treat sleep disorders” (Pernix Sleep, Inc., priority 2006, dated 2019):

Key:
Format in all cases: in vivo, human
[1] = test system: patient suffering from transient or short term insomnia; assay: Patient with transient or short term insomnia prescribed ultra low dose doxepin prior to bedtime
Source text: A patient suffers from transient or short term insomnia. The patient is otherwise healthy with normal affect with no depression, anxiety or substance overuse. The patient is prescribed doxepin in a daily dosage of 0.4 milligrams, prior to bedtime. […] A patient suffers from transient or short term insomnia. The patient is otherwise healthy with normal affect with no depression, anxiety or substance overuse. The patient is prescribed doxepin in a daily dosage of 0.08 milligrams, prior to bedtime. […] A patient suffers from transient or short term insomnia. The patient is otherwise healthy with normal affect with no depression, anxiety or substance overuse. The patient is prescribed doxepin in a daily dosage of 0.009 milligrams, prior to bedtime. […] A patient suffers from transient or short term insomnia. The patient is otherwise healthy with normal affect with no depression, anxiety or substance overuse. The patient is prescribed doxepin in a daily dosage of 0.0005 milligrams prior to bedtime. […] A patient suffers from transient or short term insomnia. The patient also suffers from depression. The patient is prescribed doxepin in a daily dosage of 0.3 milligrams, prior to bedtime. […] A patient suffers from transient or short term insomnia. The patient also suffers from depression. The patient is prescribed doxepin in a daily dosage of 0.1 milligrams, prior to bedtime. […] A patient suffers from transient or short term insomnia. The patient also suffers from depression. The patient is prescribed doxepin in a daily dosage of 0.006 milligrams, prior to bedtime. […] A patient suffers from transient or short term insomnia. The patient is otherwise healthy with normal affect with no depression, anxiety or substance overuse. The patient is prescribed doxepin in a daily dosage of 0.008 milligrams, prior to bedtime. […] A patient suffers from transient or short term insomnia. The patient also suffers from depression. The patient is prescribed doxepin in a daily dosage of 0.001 milligrams, prior to bedtime. […] A patient suffers from transient or short term insomnia. The patient also suffers from depression. The patient is prescribed doxepin in a daily dosage of 0.0003 milligrams prior to bedtime.

[2] = test system: patient suffering from chronic insomnia; assay: Patient with chronic insomnia prescribed ultra low dose doxepin prior to bedtime
Source text: A patient suffers from chronic insomnia. The patient is otherwise healthy with normal affect with no depression, anxiety or substance overuse. The patient is prescribed doxepin in a daily dosage of 0.4 milligrams prior to bedtime. […] A patient suffers from chronic insomnia. The patient is otherwise healthy with normal affect with no depression, anxiety or substance overuse. The patient is prescribed doxepin in a daily dosage of 0.2 milligrams prior to bedtime. […] A patient suffers from chronic insomnia. The patient is otherwise healthy with normal affect with no depression, anxiety or substance overuse. The patient is prescribed doxepin in a daily dosage of 0.02 milligrams prior to bedtime. […] A patient suffers from chronic insomnia. The patient is otherwise healthy with normal affect with no depression, anxiety or substance overuse. The patient is prescribed doxepin in a daily dosage of 0.007 milligrams prior to bedtime. […] A patient suffers from chronic insomnia. The patient is otherwise healthy with normal affect with no depression, anxiety or substance overuse. The patient is prescribed doxepin in a daily dosage of 0.009 milligrams prior to bedtime. […] A patient suffers from chronic insomnia. The patient is otherwise healthy with normal affect with no depression, anxiety or substance overuse. The patient is prescribed doxepin in a daily dosage of 0.0002 milligrams prior to bedtime. […] A patient suffers from chronic insomnia. The patient also suffers from depression. The patient is prescribed doxepin in a daily dosage of 0.5 milligram prior to bedtime. […] A patient suffers from chronic insomnia. The patient also suffers from depression. The patient is prescribed doxepin in a daily dosage of 0.03 milligrams prior to bedtime. […] A patient suffers from chronic insomnia. The patient also suffers from depression. The patient is prescribed doxepin in a daily dosage of 0.05 milligrams prior to bedtime. […] A patient suffers from chronic insomnia. The patient also suffers from depression. The patient is prescribed doxepin in a daily dosage of 0.004 milligrams prior to bedtime. […] A patient suffers from chronic insomnia. The patient also suffers from depression. The patient is prescribed doxepin in a daily dosage of 0.0001 milligrams prior to bedtime. […] A patient suffers from chronic insomnia. The patient also suffers from depression. The patient is prescribed doxepin in a daily dosage of 0.0009 milligrams prior to bedtime.

[3] = test system: patient suffering from a sleep disorder; assay: Patient with a sleep disorder prescribed ultra low dose doxepin, salt or prodrug prior to bedtime; details: daily dosage 0.1 milligram prior to bedtime
Source text: A patient suffers from a sleep disorder. The patient is prescribed doxepin in a daily dosage of 0.1 milligram prior to bedtime. […] A patient suffers from a sleep disorder. The patient is prescribed a pharmaceutically acceptable salt of doxepin in a daily dosage of 0.3 milligrams prior to bedtime. […] A patient suffers from a sleep disorder. The patient is prescribed a pharmaceutically acceptable salt of doxepin in a daily dosage of 0.009 milligrams prior to bedtime. […] A patient suffers from a sleep disorder. The patient is prescribed a pharmaceutically acceptable salt of doxepin in a daily dosage of 0.006 milligrams prior to bedtime. […] A patient suffers from a sleep disorder. The patient is prescribed a pharmaceutically acceptable salt of doxepin in a daily dosage of 0.0007 milligrams prior to bedtime. […] A patient suffers from a sleep disorder. The patient is prescribed a prodrug of doxepin in a daily dosage of 0.1 milligrams prior to bedtime. […] A patient suffers from a sleep disorder. The patient is prescribed a prodrug of doxepin in a daily dosage of 0.0006 milligrams prior to bedtime. […] A patient suffers from a sleep disorder. The patient is prescribed a prodrug of doxepin in a daily dosage of 0.05 milligrams prior to bedtime. […] A patient suffers from a sleep disorder. The patient is prescribed a prodrug of doxepin in a daily dosage of 0.004 milligrams prior to bedtime. […]

[4] = otherwise healthy, no depression, daily dosage 0.009 milligrams prior to bedtime
[5] = otherwise healthy, no depression, daily dosage 0.4 milligrams prior to bedtime

Measured: relief of insomnia

CN(C)CCC=C1c2ccccc2COc2ccccc21 [doxepin, 11-(3-dimethylaminopropylidene)-6,11-dihydrodibenzo-[b,e]-oxepine]
relieves the insomnia: [1]; otherwise healthy, no depression, daily dosage 0.0005 milligrams prior to bedtime | [1]; otherwise healthy, no depression, daily dosage 0.008 milligrams prior to bedtime | [1]; [4] | [1]; otherwise healthy, no depression, daily dosage 0.08 milligrams prior to bedtime | [1]; [5] | [1]; patient also suffers from depression, daily dosage 0.0003 milligrams prior to bedtime | [1]; patient also suffers from depression, daily dosage 0.001 milligrams prior to bedtime | [1]; patient also suffers from depression, daily dosage 0.006 milligrams prior to bedtime | [1]; patient also suffers from depression, daily dosage 0.1 milligrams prior to bedtime | [1]; patient also suffers from depression, daily dosage 0.3 milligrams prior to bedtime | [2]; otherwise healthy, no depression, daily dosage 0.0002 milligrams prior to bedtime | [2]; otherwise healthy, no depression, daily dosage 0.007 milligrams prior to bedtime | [2]; [4] | [2]; otherwise healthy, no depression, daily dosage 0.02 milligrams prior to bedtime | [2]; otherwise healthy, no depression, daily dosage 0.2 milligrams prior to bedtime | [2]; [5] | [2]; patient also suffers from depression, daily dosage 0.0001 milligrams prior to bedtime | [2]; patient also suffers from depression, daily dosage 0.0009 milligrams prior to bedtime | [2]; patient also suffers from depression, daily dosage 0.004 milligrams prior to bedtime | [2]; patient also suffers from depression, daily dosage 0.03 milligrams prior to bedtime | [2]; patient also suffers from depression, daily dosage 0.05 milligrams prior to bedtime | [2]; patient also suffers from depression, daily dosage 0.5 milligram prior to bedtime | [3]
